Data: PubChem BioAssay (NCI)
Several values for one entry are separate records, joined by “and”; a condition that tells them apart may be missing. Identical values can stand only once.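 Test compounds were applied to cells in 96-well plates for 48 hours at 5 doses. Abbreviation: GI50, concentration required for 50% inhibition of growth. TGI marks complete inhibition of growth.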

Tests used:
Experiment in all cases: growth of human tumour cells (NCI), 48 h
786-0 renal = test system: 786-0 renal
EKVX NSCLC = test system: EKVX NSCLC
HT29 colon = test system: HT29 colon
LOX IMVI melanoma = test system: LOX IMVI melanoma
RPMI-8226 leukemia = test system: RPMI-8226 leukemia
SNB-75 CNS = test system: SNB-75 CNS
T-47D breast = test system: T-47D breast
TK-10 renal = test system: TK-10 renal
U251 CNS = test system: U251 CNS
UO-31 renal = test system: UO-31 renal

Row | Compound | GI50 (786-0 renal) | TGI (786-0 renal) | GI50 (EKVX NSCLC) | TGI (EKVX NSCLC) | GI50 (HT29 colon) | TGI (HT29 colon) | GI50 (LOX IMVI melanoma) | TGI (LOX IMVI melanoma) | GI50 (RPMI-8226 leukemia) | TGI (RPMI-8226 leukemia) | GI50 (SNB-75 CNS) [µM] | TGI (SNB-75 CNS) | GI50 (T-47D breast) | TGI (T-47D breast) | GI50 (TK-10 renal) [µM] | TGI (TK-10 renal) | GI50 (U251 CNS) | TGI (U251 CNS) | GI50 (UO-31 renal) | TGI (UO-31 renal) [µM]
1 | Cc1ccc(NC(=O)c2sc3nc(C)c(C(O)c4ccccc4)cc3c2N)cc1 (stereo not given) | 1.02 µM | 18.8 µM | 0.733 µM | > 100 µM | 0.358 µM | 14.8 µM | 0.629 µM | 19 µM | 0.421 µM | 43.3 µM | 0.245 | 13.6 µM | 0.471 µM | > 58.3 µM | 2.12 | 36.4 µM | 0.384 µM | 22.4 µM | 0.72 µM | 41.6
2 | Clc1ccc(-c2c(C3=NCCCN3)nnn2-c2ccc(Cl)cc2)cc1 | – | > 77.1 µM | – | > 100 µM | – | 64.4 µM | – | 53 µM | – | 62.4 µM | – | > 72.2 µM | – | > 59.8 µM | – | > 77.5 µM | – | > 75.8 µM | – | 90.4
3 | Cc1ccc2[nH]c(C(=O)NN3C(=O)C(C)SC34CCCC(C)C4)c(-c3ccccc3)c2c1 (stereo not given) | 58.3 µM | > 100 µM | > 100 µM | > 100 µM | 33.9 µM | > 100 µM | > 100 µM | > 100 µM | 53.1 µM | > 100 µM | 60.1 | > 100 µM | > 100 µM | > 100 µM | 89.4 | > 100 µM | 48.8 µM | > 100 µM | > 100 µM | > 100
4 | Fc1ccc(-c2nn3ncccc3c2-c2ccnc(Nc3ccc4c(c3)OCCO4)n2)cc1 | 2.29 µM | > 25 µM | 2.16 µM | > 25 µM | 0.933 µM | > 13.6 µM | 3.38 µM | 13.7 µM | 7.85 µM | > 25 µM | – | > 25 µM | 3.95 µM | 17.9 µM | 1.35 | 9.93 µM | 7.72 µM | > 25 µM | 0.581 µM | > 25
5 | COc1cc2c(c(OC)c1OC)-c1c(cc3c(c1OC)OCO3)C1OC2C(C)C1C (stereo not given) (tested in a mixture with another compound) | – | > 100 µM | – | > 100 µM | – | > 100 µM | – | > 100 µM | – | > 100 µM | – | > 100 µM | – | 80.2 µM | – | > 100 µM | – | > 100 µM | – | > 100
6 | Cc1ccc2c3c(c(=O)[nH]c2c1)C1(C(C#N)=C(N)O3)c2cc(Br)ccc2-c2ccc(Br)cc21 | 2.46 µM | 6.01 µM | 1.74 µM | 3.82 µM | 2.25 µM | 6.06 µM | 1.68 µM | 3.25 µM | 4.5 µM | 23.7 µM | 1.51 | 3.16 µM | 1.68 µM | 3.78 µM | 2.31 | 6.09 µM | 1.81 µM | 3.5 µM | 1.33 µM | 2.74
7 | O=C1/C(=C/c2ccc(O)cc2)CSc2ccc(Cl)cc21 | 17.2 µM | 49.8 µM | 16.4 µM | 32.4 µM | 16.5 µM | 89.7 µM | 2.63 µM | 8.75 µM | 3.62 µM | > 100 µM | 18.3 | 54.8 µM | 8.86 µM | 22.7 µM | 15.6 | 34.2 µM | 4.21 µM | 15.8 µM | 12.4 µM | 29.1
8 | CC(C)(C)c1cc(NC(=O)Cc2ccc(-c3cnc4cc(-c5cnn(CCN6CCOCC6)c5)ccc4n3)cc2)no1 | 0.297 µM and 0.764 µM and 0.092 µM | 50 µM and > 100 µM and > 3 µM | 0.829 µM and 0.459 µM and 0.144 µM | 50 µM and > 100 µM and > 3 µM | 0.613 µM and 1.06 µM and 0.116 µM | 50 µM and > 100 µM and > 3 µM | 0.248 µM and 0.416 µM and 0.0821 µM | 50 µM and > 100 µM and > 3 µM | 0.249 µM and 0.609 µM and 0.0985 µM | 50 µM and > 100 µM and > 3 µM | – | 4.39 µM and 38.4 µM and > 3 µM | 0.853 µM and 0.822 µM and 0.107 µM | 50 µM and > 100 µM and > 3 µM | – | 50 µM and > 100 µM and > 3 µM | 0.337 µM and 0.456 µM and 0.0964 µM | 50 µM and > 100 µM and > 3 µM | 0.135 µM and 0.0883 µM | –
9 | CC(C)(C)c1ccc(O)c(CN(Cc2cc(C(C)(C)C)ccc2O)c2ccccc2)c1 | – | 30.7 µM | – | 37.1 µM | – | 35.3 µM | – | 26.8 µM | – | 47.7 µM | – | 52.4 µM | – | 42.8 µM | – | 31.5 µM | – | 28.4 µM | – | 29.2
10 | Cn1cnc([N+](=O)[O-])c1[Se]c1nc(N)nc2c1ncn2C1OC(CO)C(O)C1O (stereo not given) | – | > 100 µM | – | > 100 µM | – | > 100 µM | – | > 100 µM | – | > 100 µM | – | > 100 µM | – | > 100 µM | – | > 100 µM | – | > 100 µM | – | > 100
11 | CCCCN1CSC(=S)N(Cc2ccccc2)C1 | – | > 100 µM | – | 78.7 µM | – | > 100 µM | – | > 100 µM | – | 59 µM | – | > 100 µM | – | > 100 µM | – | > 100 µM | – | > 100 µM | – | > 100
12 | CN1C(=O)c2ccccc2NC(=O)C12O[C@@H]2c1cccc(O)c1 (stereo not given in full) | – | > 100 µM | – | > 100 µM | – | > 100 µM | – | > 100 µM | – | > 100 µM | – | > 100 µM | – | > 100 µM | – | > 100 µM | – | > 100 µM | – | > 100
13 | N#Cc1cccc(NC(=O)c2cc(-c3ccc(F)cc3F)ccc2O)c1 | 2.69 µM | 19.4 µM | 2.65 µM | 10.9 µM | 4.73 µM | 37.3 µM | 2.45 µM | 6.58 µM | 0.675 µM | 3.16 µM | 2.08 | 8.05 µM | 1.1 µM | 6.83 µM | 3.24 | 20.1 µM | 2.79 µM | > 100 µM | 2.26 µM | 6.99
14 | COc1cc2c3c(n(C)c(=O)c2cc1OC)-c1cc2c(cc1/C3=C\CNCCCN)OCO2 | 0.367 µM | 6.07 µM | 2.85 µM | 12.2 µM | 0.376 µM | > 100 µM | 0.162 µM | 2.23 µM | 0.414 µM | 2.15 µM | 0.923 | 9.47 µM | – | 3.02 µM | 0.981 | 7.47 µM | 0.0717 µM | 1.58 µM | 6.96 µM | > 100
